Structures can show the parent of a compound that is named as a salt.
Columns and labels:
[1] = system: reverse passive Arthus reaction (RPA) in rats; assay: Reverse passive Arthus reaction (RPA) in rats; format: in vivo, Charles Foster rats of both sexes; details: Rattus norvegicus, po, 4 h, one hour before RPA, edema vs untreated control
Experimental: Charles Foster rats of both sexes, weighing 150-180 g, were sorted into groups of six animals each. 24 hours before the initiation of the RPA, the rats were shaved from the mid-dorsal region and fasted overnight. The test compounds were administered orally one hour before inducing the Arthus reaction. The RPA reaction was induced by intradermal injection of 0.1 ml of appropriately diluted rabbit anti-BSA serum. Immediately after the intradermal exposure, each rat received 0.5 ml of 0.4% bovine serum albumin intraveneously. Four hours after the intradermal challenge, each group of animals was killed by cervical dislocation. The full thickness of the skin was removed from the back of each animal, and a 12 mm diameter disk was punched out with a metal punch from the site of the antiserum injection. The wet weight of each skin site was determined as soon as possible. The edema caused by the RPA was measured as the difference (expressed in mg) between the wet weight of the site injected with antibody and that injected with normal rabbit serum. The results are expressed as the percentage inhibition or potentiation of the edema by the compound as compared with the edema induced in the untreated control animals.

[2] = system: carrageenin-induced paw edema in rats; assay: Systemic anti-inflammatory action on carrageenin-induced paw edema in rats; format: in vivo, male Charles Foster rats; details: Rattus norvegicus, po; decrease in paw volume, 3 and 6 hours after carrageenin; from dose/response curve; read-out: ED50
Experimental: Male Charles Foster rats (120-150 g) were fasted for 18 hours, with water ad libitum. The test compound dissolved in distilled water was administered orally. The control group received distilled water. 0/05 ml of 0.5% carrageenin suspension was injected subcutaneously into the plantar region of the left hind paw. Using a Maclab differential volume meter, the paw volume was determined before the carrageenin injection and 3 and 6 hours after the injection. The percentage decrease in paw volume was calculated by the following equation: [formula] The ED50 value was calculated from the dose/response curve. Six animals were used for each group. The results with representative compounds according to the invention and their salts are listed in Table 4, the substituents relating to the following formula Ia: [drawing 11]

`CCCc1cc(=O)c2c(O)cc(O)c(C3CCN(C)CC3O)c2o1` (single isomer, unassigned; (-)) [(-) n-C3 H7 H CH3 HCl.H2 O, cis-(-)-5,7-dihydroxy-2-n-propyl-8-[4'-(3'-hydroxy-1'-methyl)-piperidinyl]-4H-1-benzopyran-4-one] showed an inhibition in vivo at 2.5 mg/kg ([1]; dose 2.5 mg/kg p.o.) of 42.7%, an inhibition in vivo at 5 mg/kg ([1]; dose 5.0 mg/kg p.o.) of 41.3% and an inhibition in vivo at 10 mg/kg ([1]; dose 10.0 mg/kg p.o.) of 63.7%. The inhibition in vivo at 20 mg/kg ([1]; dose 20.0 mg/kg p.o.) was 72.1% and the ED50 [2] was 5.8 mg/kg.

From patent US4900727A, “4H-1-benzopyran-4-one compounds which have anti-inflamatory or immunodulating action” (Hoechst Aktiengesellschaft, priority 1986, dated 1990)
